Values of other authors, collected in patent US20230048872A1, “COMPOSITIONS AND METHODS FOR DIAGNOSING OR TREATING NEUTROPHIL-MEDIATED INFLAMMATORY DISEASE” (THE BOARD OF TRUSTEES OF THE UNIVERSITY OF ILLINOIS, priority 2013, published 2023).

- solubility in water: low
Structure (SMILES): Oc1cc(O)cc(/C=C/c2ccc(O)c(O)c2)c1 [Piceatannol, piceatannol]
